Values of other authors as cited in patent US6375634B1, “APPARATUS AND METHOD TO ENCAPSULATE, KILL AND REMOVE MALIGNANCIES, INCLUDING SELECTIVELY INCREASING ABSORPTION OF X-RAYS AND INCREASING FREE-RADICAL DAMAGE TO RESIDUAL TUMORS TARGETED BY IONIZING AND NON-IONIZING RADIATION THERAPY” (Oncology Innovations, Inc., priority 1997, dated 2002).
Entries after “also recorded” stand apart in the source; their conditions may differ.

Assays:
[1] = tested on: human pancreatic adenocarcinoma AsPC-1 cells
[2] = tested on: DNA; conditions: in the presence of hydrogen peroxide, among ferric iron chelates
[3] = tested on: DNA
[4] = iron overload states
[5] = presence of l-histidine
[6] = tested on: Chinese hamster ovary cells

In the case of `Cc1c(N)nc([C@H](CC(N)=O)NC[C@H](N)C(N)=O)nc1C(=O)N[C@H](C(=O)N[C@H](C)[C@@H](O)[C@H](C)C(=O)N[C@H](C(=O)NCCc1nc(-c2nc(C(=O)NCCC[S+](C)C)cs2)cs1)[C@@H](C)O)[C@@H](O[C@@H]1O[C@@H](CO)[C@@H](O)[C@H](O)[C@@H]1O[C@H]1O[C@H](CO)[C@@H](O)[C@H](OC(N)=O)[C@@H]1O)c1c[nH]cn1.[Br-]` [Bleomycin A2], the “cell cycle effect in flow-cytometric analysis” value [1] is given as “induced G2/M block” and the induction of apoptosis [1] is given as “did not induce apoptosis”.

In the case of `O=C(O)CN(CC(=O)O)CC(=O)O.[Fe+3]` [ferric nitrilo tri-acetic acid], the DNA damage [2] is listed as “produced the most DNA damage”.

For `OO` [hydrogen peroxide], the DNA injury ([3]; 80 micromoles hydrogen peroxide, absence of histidine) is listed as “no injury”.

In the case of `[Fe]` [iron], the “tissue iron level at which the heart sustains injury” value [4] is listed as “approximately one thousand”.

In the case of `N[C@@H](Cc1c[nH]cn1)C(=O)O` [l-histidine], the “sensitivity of hydrogen peroxide resistant cell lines” value [5] is listed as “rendered sensitive” and the DNA destroyed ([3]; 80 micromoles hydrogen peroxide with 300 micromoles l-histidine present) is listed as “more than 50%”.

For ferritin, the toxicity ([6]; 32 micrograms/ml) is given as “nontoxic; also recorded: not toxic”, the “reduction of clonogenic-cell survival after x-irradiation” value ([6]; 32 micrograms/ml ferritin, 4.0 Gray) is given as “approximately 75%” and the “clonogenic-cell survival after x-irradiation” value ([6]; 32 micrograms/ml ferritin, 4.0 Gray (about 0.66 without ferritin)) is given as about 0.17.
